Source: patent publication US20230321253A1, “BIFUNCTIONAL COMPOUNDS AND PHARMACEUTICAL USES THEREOF” (RISEN (SUZHOU) PHARMA TECH CO., LTD., priority 2022, published 2023)

Molecular target: T1, KRAS-G12D protein (Homo sapiens, UniProt P01116, G12D)
T1 construct: host or cells: Aspc-1 cells
Experiment: KRAS-G12D protein degradation study in Aspc-1 cells (western blot)
Format: cell-based
Conditions: for inhibition at 0.05 µM / inhibition at 0.1 µM / inhibition at 1 µM: ASPC1, 24 h, 24 hours; for inhibition at 0.05 µM: Aspc-1 cells treated with 50 nM compound, read-out: Rate of degradation (KRAS^G12D); for inhibition at 0.1 µM: Aspc-1 cells treated with 0.1 μM compound; for inhibition at 0.1 µM / inhibition at 1 µM: read-out: Rate of protein degradation (KRAS^G12D); for inhibition at 1 µM: Aspc-1 cells treated with 1 μM compound; for DC50: Aspc-1 cells, read-out: DC50 of test compound-induced KRAS^G12D protein degradation
Description: Aspc-1 (Cobioer, CBP60546) cells in exponential growth phase were inoculated on a 6-well cell culture plate (Corning, 3516) at density of 1E6/well; and cells in the plate were cultured in 37° C. incubator containing 5% carbon dioxide. The next day, test compounds were dissolved in DMSO (Sigma, RNBF5902) for the preparation of a 10 mM concentration stock solution. The stock solution was diluted with complete medium (RPMI-1640 supplemented with 10% fetal bovine serum, 1% penicillin-streptomycin), yielding working solutions of various concentrations. The plate, after the addition of compounds, was placed in a 5% carbon dioxide incubator, and incubated at 37° C. for 24 hours (final DMSO concentration was 0.1%). The plate was then removed from the incubator, and the cells were washed twice with precooled PBS (Gibco, 14190250), followed by addition of 80 μL RIPA lysis buffer (containing protease inhibitor (Invitrogen™, AM2696)) to each well. The adherent cells were scraped off with a cell scraper, and the cell lysate was transferred to a 1.5 mL centrifuge tube followed with a 30-minute incubation on ice. The lysate was then clarified with centrifugation at 14000 rpm for 10 min at 4° C. The supernatant was transferred into a new 1.5 mL centrifuge tube, and protein concentration was measured with BCA protein detection kit (Thermo Fisher, 23225). KRAS-G12D protein level was assessed by western blot.
A mixture of cell lysate (40 μL) and loading buffer (10 μL 5×SDS (Beyotime, P0015L)) was denatured in a water bath at 95° C. for 10 min. The denatured protein sample, at 30 μL/well, was loaded into the corresponding well of a 4-20% Bis-Tris gel (Kingsley, M00656). Protein samples were initially electrophoresed at 80 V for 30 minutes, followed by 120 V for 40 minutes, until the bromophenol blue strip ran to an appropriate position. After electrophoresis, iBlot2 (Life Technologies, IB21001) was used to transfer the separated samples onto PVDF film. The PVDF membrane was washed with double-distilled water and then blocked in TBST (Thermo Scientific, 28360) buffer containing 5% non-fat milk, for 2 hours. Blocked membrane was rinsed with tris-buffered saline tween-20 (Thermo Scientific, 28360, TBST) three times, 10 minutes each. Membrane was then incubated with 1:1000 diluted KRAS primary antibody (CST, cat #14429S) overnight at 4° C. Membrane was rinsed as described previously followed by 1 hour incubation of secondary antibody at room temperature. After washing the film three times with TBST, ECL color developing solution was applied, and image was captured with Biorad Chemi Doc gel imager. The band gray value was quantified (Image Lab), and protein degradation level was calculated according to the following formula:
Level of RAS protein expression=(RAS-compound/GAPDH)/(RAS-DMSO/GAPDH)
Level of degradation (%)=(1−Rate of RAS protein expression)×100
The symbols “−”, “+”, “++”, and “+++” indicate that the degradation level of KRAS^G12D protein induced by the test compounds was 10% or less, 11 to 30%, 31 to 60%, and greater than 60%, respectively.
Half-maximum degradation concentrations (DC50s) of exemplary test compounds were calculated using GraphPad Prism and their values are shown in Table 6. The symbols “++++”, “+++”, “++” and “+” indicate DC50 equal or less than 10 nM, 11-50 nM, 51-100 nM, and 101-200 nM, respectively.

T1 sequence (P01116 1-188 isoform P01116-2 G12D): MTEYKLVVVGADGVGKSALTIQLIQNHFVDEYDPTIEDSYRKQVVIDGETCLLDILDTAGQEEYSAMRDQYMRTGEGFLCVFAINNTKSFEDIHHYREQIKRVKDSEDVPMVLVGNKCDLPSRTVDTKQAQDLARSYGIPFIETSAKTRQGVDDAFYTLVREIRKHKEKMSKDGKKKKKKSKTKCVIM

SMILES	inhibition at 0.05 µM [%]	inhibition at 0.1 µM [%]	also measured
C#Cc1c(F)ccc2cc(O)cc(-c3ncc4c(N5CC6CCC(C5)N6)nc(OCC5(CN6CCC(N7CCN(c8ccc(NC9CCC(=O)NC9=O)cc8F)CC7)CC6)CC5)nc4c3F)c12 (stereo not drawn) [Compound 142]	31 to 60		
C#Cc1c(F)ccc2cc(O)cc(-c3ncc4c(N5CC6CCC(C5)N6)nc(OCCN5CCN(C(=O)CCCCCOc6cc(-c7scnc7C)ccc6CNC(=O)[C@@H]6C[C@@H](O)CN6C(=O)[C@@H](NC(=O)C6(F)CC6)C(C)(C)C)CC5)nc4c3F)c12 [Compound 132]		11 to 30	
C#Cc1c(F)ccc2cc(O)cc(-c3ncc4c(N5CC6CCC(C5)N6)nc(OCC5(CN6CCC(CC(=O)N7CCC(c8ccc9c(C%10CCC(=O)NC%10=O)nn(C)c9c8)CC7)CC6)CC5)nc4c3F)c12 (stereo not drawn) [Compound 147]	31 to 60		
C#Cc1c(F)ccc2cc(O)cc(-c3ncc4c(N5CC6CCC(C5)N6)nc(OC5CCN(CCCCCCCCCCC(=O)N6CCN(C(=O)C[C@H](NC(=O)[C@@H]7C[C@@H](O)CN7C(=O)[C@@H](NC(=O)C7(F)CC7)C(C)(C)C)c7ccc(-c8scnc8C)cc7)CC6)CC5)nc4c3F)c12 [Compound 103]		≤ 10	
C#Cc1c(F)ccc2cc(O)cc(-c3ncc4c(N5CC6CCC(C5)N6)nc(OCC5(CN6CCC(N7CCC(c8ccc9c(C%10CCC(=O)NC%10=O)nn(C)c9c8)CC7)C(F)(F)C6)CC5)nc4c3F)c12 (stereo not drawn) [Compound 139]	31 to 60		
C#Cc1c(F)ccc2cc(O)cc(-c3ncc4c(N5CC6CCC(C5)N6)nc(OCC5C[C@@H](NC(=O)CCCCCCCCCCC(=O)N6CCC(c7ccc8c(C9CCC(=O)NC9=O)nn(C)c8c7)CC6)CN5C)nc4c3F)c12 (stereo partly drawn) [Compound 89]		≤ 10	
C#Cc1c(F)ccc2cc(O)cc(-c3ncc4c(N5CC6CCC(C5)N6)nc(OCC5(CN(C)C(=O)CC(C)(C)CC(=O)N6CCC(c7ccc8c(C9CCC(=O)NC9=O)nn(C)c8c7)CC6)CC5)nc4c3F)c12 (stereo not drawn) [Compound 137]	≤ 10		
C#Cc1c(F)ccc2cc(O)cc(-c3ncc4c(N5CC6CCC(C5)N6)nc(O[C@@H]5CCN(CCCCCCCCCCC(=O)N[C@H](C(=O)N6C[C@H](O)C[C@H]6C(=O)N[C@@H](C)c6ccc(-c7scnc7C)cc6)C(C)(C)C)C5)nc4c3F)c12 [Compound 86]		31 to 60	
C#Cc1c(F)ccc2cc(O)cc(-c3ncc4c(N5CC6CCC(C5)N6)nc(OC5CCN(CCOCCOCC(=O)N[C@H](C(=O)N6C[C@H](O)C[C@H]6C(=O)NCc6ccc(-c7scnc7C)cc6)C(C)(C)C)CC5)nc4c3F)c12 [Compound 53]			inhibition at 1 µM: 11 to 30%
C#Cc1c(F)ccc2cc(O)cc(-c3ncc4c(N5CC6CCC(C5)N6)nc(OCC5(CN6CCC7(CCN(c8ccc(NC9CCC(=O)NC9=O)cc8F)CC7)C6)CC5)nc4c3F)c12 (stereo not drawn) [Compound 125]	31 to 60		
C#Cc1c(F)ccc2cc(O)cc(-c3ncc4c(N5CC6CCC(C5)N6)nc(OCCCN5CCN(CC(=O)N6CCN(c7ccc8c(c7)C(=O)N(C7CCC(=O)NC7=O)C8=O)CC6)CC5)nc4c3F)c12 (stereo not drawn) [Compound 59]		≤ 10	inhibition at 1 µM: ≤ 10%
C#Cc1c(F)ccc2cc(O)cc(-c3ncc4c(N5CC6CCC(C5)N6)nc(OC5CCN(CCCCCCOc6cc(-c7scnc7C)ccc6CNC(=O)[C@@H]6C[C@@H](O)CN6C(=O)[C@@H](NC(=O)C6(F)CC6)C(C)(C)C)CC5)nc4c3F)c12 [Compound 131]		≤ 10	
C#Cc1c(F)ccc2cc(O)cc(-c3ncc4c(N5CC6CCC(C5)N6)nc(OCC56CCCN5[C@@H](COC(=O)NCCCCCCCCCC(=O)N[C@H](C(=O)N5C[C@H](O)C[C@H]5C(=O)N[C@@H](C)c5ccc(-c7scnc7C)cc5)C(C)(C)C)CC6)nc4c3F)c12 (stereo partly drawn) [Compound 98]		31 to 60	
C#Cc1c(F)ccc2cc(O)cc(-c3ncc4c(N5CC6CCC(C5)N6)nc(OCC5(CN6CCC7(CC6)CC(N6CC=C(c8cccc9c8n(C)c(=O)n9C8CCC(=O)NC8=O)CC6)C7)CC5)nc4c3F)c12 (stereo not drawn) [Compound 161]	31 to 60		
C#Cc1c(F)ccc2cc(O)cc(-c3ncc4c(N5CC6CCC(C5)N6)nc(O[C@@H]5CCN(CCCCCCCCCC(=O)N[C@H](C(=O)N6C[C@H](O)C[C@H]6C(=O)N[C@@H](C)c6ccc(-c7scnc7C)cc6)C(C)(C)C)C5)nc4c3F)c12 [Compound 88]		≤ 10	
C#Cc1c(F)ccc2cc(O)cc(-c3ncc4c(N5CC6CCC(C5)N6)nc(OC[C@@H]5C[C@@H](NC(=O)N6CCC(c7ccc8c(C9CCC(=O)NC9=O)nn(C)c8c7)CC6)CN5C)nc4c3F)c12 (stereo partly drawn) [Compound 95]		11 to 30	
CCc1c(F)ccc2cc(O)cc(-c3ncc4c(N5CC6CCC(C5)N6)nc(OCC5(CN6CCC7(CC6)CC(N6CCC(c8ccc9c(C%10CCC(=O)NC%10=O)nn(C)c9c8)CC6)C7)CC5)nc4c3F)c12 (stereo not drawn) [Compound 81]		31 to 60	
C#Cc1c(F)ccc2cc(O)cc(-c3ncc4c(N5CC6CCC(C5)N6)nc(OC5CCN(CCCCCCCCCCC(=O)N[C@H](C(=O)N6C[C@H](O)C[C@H]6C(=O)N[C@@H](C)c6ccc(-c7scnc7C)cc6)C(C)(C)C)C5)nc4c3F)c12 (stereo partly drawn) [Compound 55]		> 60	inhibition at 1 µM: > 60%
C#Cc1c(F)ccc2cc(O)cc(-c3ncc4c(N5CC6CCC(C5)N6)nc(OCC5CCN(CCCCCCCCCCC(=O)N[C@H](C(=O)N6C[C@H](O)C[C@H]6C(=O)N[C@@H](C)c6ccc(-c7scnc7C)cc6)C(C)(C)C)C5)nc4c3F)c12 (stereo partly drawn) [Compound 56]		31 to 60	inhibition at 1 µM: > 60%
C#Cc1c(F)ccc2cc(O)cc(-c3ncc4c(N5CC6CCC(C5)N6)nc(OCC5(CN6CCN(CC7CCN(c8ccc9c(c8)C(=O)N(C8CCC(=O)NC8=O)C9=O)CC7)CC6)CC5)nc4c3F)c12 (stereo not drawn) [Compound 115]		31 to 60	DC50: 11 to 50 nM
C#Cc1c(F)ccc2cc(O)cc(-c3ncc4c(N5CC6CCC(C5)N6)nc(OCC5(CN6CCN(c7ccc(C(=O)NC8CCC(=O)NC8=O)nc7)CC6)CC5)nc4c3F)c12 (stereo not drawn) [Compound 145]	≤ 10		
CCc1c(F)ccc2cc(O)cc(-c3ncc4c(N5CC6CCC(C5)N6)nc(OCC56CCCN5[C@@H](COC(=O)NCCCCC(=O)N[C@H](C(=O)N5C[C@H](O)C[C@H]5C(=O)N[C@@H](C)c5ccc(-c7scnc7C)cc5)C(C)(C)C)CC6)nc4c3F)c12 (stereo partly drawn) [Compound 67]		≤ 10	inhibition at 1 µM: 31 to 60%
C#Cc1c(F)ccc2cc(O)cc(-c3ncc4c(N5CC6CCC(C5)N6)nc(OCC5(CN6CCC(CN7CCN(c8cc9c(cc8F)C(=O)N(C8CCC(=O)NC8=O)C9=O)CC7)CC6)CC5)nc4c3F)c12 (stereo not drawn) [Compound 141]	11 to 30	> 60	
C#Cc1c(F)ccc2cc(O)cc(-c3ncc4c(N5CC6CCC(C5)N6)nc(OCC5(CN6CCC7(CC6)CC(Nc6ccc8c(C9CCC(=O)NC9=O)nn(C)c8c6)C7)CC5)nc4c3F)c12 (stereo not drawn) [Compound 167]	> 60		
C#Cc1c(F)ccc2cc(O)cc(-c3ncc4c(N5CC6CCC(C5)N6)nc(OCC5(CN6CCC7(CC6)CC(N6CCC(c8cccc(C9CCC(=O)NC9=O)c8)CC6)C7)CC5)nc4c3F)c12 (stereo not drawn) [Compound 162]	≤ 10		
C#Cc1c(F)ccc2cc(O)cc(-c3ncc4c(N5CC6CCC(C5)N6)nc(OCCCN5CCN(C(=O)C[C@H](NC(=O)[C@@H]6C[C@@H](O)CN6C(=O)[C@@H](NC(=O)C6(F)CC6)C(C)(C)C)c6ccc(-c7scnc7C)cc6)CC5)nc4c3F)c12 [Compound 64]		≤ 10	inhibition at 1 µM: 11 to 30%
C#Cc1c(F)ccc2cc(O)cc(-c3ncc4c(N5CC6CCC(C5)N6)nc(OCCCN5CCC(C(=O)N6CCC(N7CCC(c8ccc9c(C%10CCC(=O)NC%10=O)nn(C)c9c8)CC7)CC6)CC5)nc4c3F)c12 (stereo not drawn) [Compound 75]		> 60	DC50: < 10 nM
C#Cc1c(F)ccc2cc(O)cc(-c3ncc4c(N5CC6CCC(C5)N6)nc(OCCCN5CCN(CCC(=O)C6CCC(c7ccc8c(C9CCC(=O)NC9=O)nn(C)c8c7)CC6)CC5)nc4c3F)c12 (stereo not drawn) [Compound 74]		31 to 60	
